# Experimental data as given in patent US10568876B2, “Tetrahydroisoquinoline derivatives useful as inhibitors of diacylglyceride O-acyltransferase 2” (Merck Sharp & Dohme Corp., priority 2014, dated 2020).
# Biological target: hDGAT2 (Homo sapiens (Human), UniProt Q96PD7)
# Experiment: DGAT2 Enzymatic Activity Assay
# Assay type: biochemical
# Details: hDGAT2 Sf-9 membrane prep; 25 μM diolein, 10 μM oleoyl-CoA; triolein product by LC/MS/MS; read-out: IC50 values for inhibition of DGAT2
# Protocol: Sf-9 insect cells were maintained in Grace's insect cell culture medium with 10% heated-inactivated fetal bovine serum, 1% Pluronic F-68 and 0.14 μg/ml Kanamycine sulfate in Erlenmeyer flasks at 28° C. in a shaker incubator. After infection with untagged hDGAT2 baculovirus at multiplicity of infection (MOI) 0.1 for 48 hours, cells were harvested. Cell pellets were suspended in buffer containing 10 mM Tris-HCl (pH 7.5), 1 mM EDTA (pH 8.0), 250 mM sucrose and Complete Protease Inhibitor Cocktail (Roche Diagnostics Corp., Indianapolis, Ill.), and sonicated on ice. Membrane fractions were isolated by ultracentrifugation (100,000×g pellet), resuspended in the same buffer, and frozen (−80° C.) for later use. The protein concentration was determined with the BCA Protein Assay kit (Pierce Biotechnology Inc., Rockford, Ill.). Expression of protein levels was analyzed by immunoblotting with goat polyclonal DGAT2 antibody C-15 and donkey anti-goat IgG HRP (Santa Cruz Biotechnology, Inc., Santa Cruz, Calif.) followed by detection with ECL reagent (GE Healthcare, Piscataway, N.J.).
# LC/MS/MS analyses were performed using Thermal Fisher's LX4-TSQ Vantage system. This system consists of an Agilent binary high-performance liquid chromatography (HPLC) pumps and a TSQ Vantage triple quadrupole MS/MS instrument. For each sample, 2 μL, samples from the top organic layer of in-plate liquid-liquid extraction were injected onto a Thermo Betabasic C4 column (2.1 mm×20 mm, 5 μm particle size). The samples were then eluted using the following conditions; mobile phase: methanol/water with 0.1% ammonium format=92/8 (v/v), flow rate: 1 mL/min, temperature: 25 C. Data was acquired in positive mode using a heated electrospray ionization (HESI) interface. The operational parameters for the TSQ Vantage MS/MS instrument were a spray voltage of 3000 V, capillary temperature of 280° C., vaporizer temperature 400° C., shealth gas 60 arbitrary unit, Aux gas 40 arbitrary units, S-lens 113 and collision gas 0.16 Pascals. […] (SRM) chromatograms of triolein (Q1: 902.9>Q3: 602.3) and internal standard (Q1: 902.9>Q3: 602.3) were collected for 40 sec. The peak area was integrated by Xcalibur Quan software. The ratio between the triolein generated in the reaction and spiked in internal standard were used to generate percentage inhibition and IC50 values. Compound percentage inhibition was calculated by the following formula: Inhibition %=1-[(compound response low control)/(high control low control)]×100%. Potent compounds were titrated and IC50 were calculated by 4 parameter sigmoidal curve fitting formula.
# DGAT2 activity was determined by measuring the amount of enzymatic product triolein (1,2,3-Tri(cis-9-octadecenoyl)glycerol) using the membrane prep mentioned above. The assay was carried out in deep well 384 plates in a final volume of 40 μL at room temperature. The assay mixture contained the following: assay buffer (100 mM Tris.Cl, pH 7.0, 20 mM MgCl2, 5% ethanol), 25 μM of diolein, 10 μM of oleoyl-CoA and 10 ng/μL of DGAT2 membrane.
# hDGAT2, sequence (Q96PD7 whole entry): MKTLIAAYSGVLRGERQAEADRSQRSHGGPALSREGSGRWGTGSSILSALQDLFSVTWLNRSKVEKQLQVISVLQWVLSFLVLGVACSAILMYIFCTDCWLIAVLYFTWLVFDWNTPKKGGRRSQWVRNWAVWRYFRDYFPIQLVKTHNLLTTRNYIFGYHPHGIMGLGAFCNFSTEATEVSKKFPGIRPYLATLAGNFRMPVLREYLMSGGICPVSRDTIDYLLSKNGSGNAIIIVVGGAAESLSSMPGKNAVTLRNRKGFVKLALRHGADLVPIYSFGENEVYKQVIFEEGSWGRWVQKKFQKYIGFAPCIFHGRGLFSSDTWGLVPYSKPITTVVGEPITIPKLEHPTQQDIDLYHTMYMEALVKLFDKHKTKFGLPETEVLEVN
row,SMILES,IC50 [nM]
1,"CC(C)(C)NC(=O)N1CCc2c(-c3cccc(-n4cncn4)c3)ccc(CNC(=O)[C@@H]3C[C@H]3c3ccccc3)c2C1 (relative stereo) [Example 50, 5-(3-(1H-1,2,4-triazol-1-yl)phenyl)-N-(tert-butyl)-8-(((trans)-2-phenylcyclopropanecarboxamido)methyl)-3,4-dihydroisoquinoline-2(1H)-carboxamide]",9.3
2,"CC(C)(C)NC(=O)N1CCc2c(-c3cccc(C(C)(C)O)c3)ccc(CNC(=O)[C@@H]3C[C@H]3c3ccccc3)c2C1 (relative stereo) [Example 52, N-(tert-butyl)-5-(3-(2-hydroxypropan-2-yl)phenyl)-8-(((trans)-2-phenylcyclopropanecarboxamido)methyl)-3,4-dihydroisoquinoline-2(1H)-carboxamide]",20.2
3,"COc1cccc(-c2ccc(CNC(=O)[C@@H]3C[C@H]3c3nc(C)no3)c3c2CCN(C(=O)NC2(C)COC2)C3)c1 (relative stereo) [Example 53, 5-(3-methoxyphenyl)-8-(((trans)-2-(3-methyl-1,2,4-oxadiazol-5-yl)cyclopropanecarboxamido)methyl)-N-(3-methyloxetan-3-yl)-3,4-dihydroisoquinoline-2(1H)-carboxamide]",13.4
4,"COC(=O)c1cccc(-c2ccc(CNC(=O)[C@H]3C[C@@H]3c3ccccc3)c3c2CCN(C(=O)NC2(C)CC2)C3)c1 (relative stereo) [Example 54, methyl 3-(2-((1-methylcyclopropyl)carbamoyl)-8-(((trans)-2-phenylcyclopropanecarboxamido)methyl)-1,2,3,4-tetrahydroisoquinolin-5-yl) benzoate]",1.13
5,"COC(=O)c1cccc(-c2ccc(CNC(=O)[C@@H]3C[C@H]3c3ccccc3)c3c2CCN(C(=O)NC2(C)CCCC2)C3)c1 (relative stereo) [Example 55, methyl 3-(2-((1-methylcyclopentyl)carbamoyl)-8-(((trans)-2 phenylcyclopropanecarboxamido)methyl)-1,2,3,4-tetrahydroisoquinolin-5-yl) benzoate]",10
6,"CCOC(=O)CCCNC(=O)N1CCc2c(-c3cccc(OC)c3)ccc(CNC(=O)[C@@H]3C[C@H]3c3ccccc3)c2C1 (relative stereo) [Example 59, ethyl 4-(5-(3-methoxyphenyl)-8-(((trans)-2-phenylcyclopropanecarboxamido)methyl)-1,2,3,4-tetrahydroisoquinoline-2-carboxamido)butanoate]",227
7,"COc1cccc(-c2ccc(CNC(=O)[C@@H]3C[C@H]3c3ccccc3)c3c2CCN(C(=O)NC(C)(C)CC(C)(C)C)C3)c1 (relative stereo) [Example 61, 5-(3-methoxyphenyl)-8-(((trans)-2-phenylcyclopropanecarboxamido)methyl)-N-(2,4,4-trimethylpentan-2-yl)-3,4-dihydroisoquinoline-2(1H)-carboxamide]",500
8,"COc1cccc(-c2ccc(CNC(=O)[C@@H]3C[C@H]3c3ccccc3)c3c2CCN(C(=O)N2CCOCC2)C3)c1 (relative stereo) [Example 62, (trans)-N-((5-(3-methoxyphenyl)-2-(morpholine-4-carbonyl)-1,2,3,4-tetrahydroisoquinolin-8-yl)methyl)-2-phenylcyclopropanecarboxamide]",818
9,"COc1cccc(-c2ccc(CNC(=O)[C@@H]3C[C@H]3c3ccccc3)c3c2CCN(C(=O)NCCCC(=O)O)C3)c1 (relative stereo) [Example 64, 4-(5-(3-methoxyphenyl)-8-(((trans)-2-phenylcyclopropanecarboxamido)methyl)-1,2,3,4-tetrahydroisoquinoline-2-carboxamido)butanoic acid]",4280
10,"CCCNC(=O)N1CCc2c(-c3cccc(C(F)(F)F)c3)ccc(CNC(=O)[C@@H]3C[C@H]3c3nc(C)no3)c2C1 (relative stereo) [Example 66, 8-(((trans)-2-(3-methyl-1,2,4-oxadiazol-5-yl)cyclopropanecarboxamido)methyl)-N-propyl-5-(3-(trifluoromethyl)phenyl)-3,4-dihydroisoquinoline-2(1H)-carboxamide]",11.5
11,"Cc1noc([C@@H]2C[C@H]2C(=O)NCc2ccc(-c3cccc(OC(F)(F)F)c3)c3c2CN(C(=O)NC2(C)COC2)CC3)n1 (relative stereo) [Example 67, 8-(((trans)-2-(3-methyl-1,2,4-oxadiazol-5-yl)cyclopropanecarboxamido)methyl)-N-(3-methyloxetan-3-yl)-5-(3-(trifluoromethoxy)phenyl)-3,4-dihydroisoquinoline-2(1H)-carboxamide]",13.6
12,"COc1cccc(-c2ccc(CNC(=O)[C@@H]3C[C@H]3c3ccccc3)c3c2CCN(C(=O)NC2(C)COC2)C3)c1 (relative stereo) [Example 68, 5-(3-methoxyphenyl)-N-(3-methyloxetan-3-yl)-8-(((trans)-2-phenylcyclopropanecarboxamido)methyl)-3,4-dihydroisoquinoline-2(1H)-carboxamide]",13.8
13,"Cc1noc([C@@H]2C[C@H]2C(=O)NCc2ccc(-c3cccc(C(F)(F)F)c3)c3c2CN(C(=O)NC2(C)COC2)CC3)n1 (relative stereo) [Example 69, 8-(((trans)-2-(3-methyl-1,2,4-oxadiazol-5-yl)cyclopropanecarboxamido)methyl)-N-(3-methyloxetan-3-yl)-5-(3-(trifluoromethyl)phenyl)-3,4-dihydroisoquinoline-2(1H)-carboxamide]",19.6
14,CCCNC(=O)N1CCc2c(-c3cccc(OC)c3)ccc(CNC(=O)[C@@H]3C[C@H]3c3ccccc3)c2C1 (relative stereo) [Example 70],20.4
15,"Cc1noc([C@@H]2C[C@H]2C(=O)NCc2ccc(-c3cccc(OC(F)(F)F)c3)c3c2CN(C(=O)NC2COC2)CC3)n1 (relative stereo) [Example 73, 8-(((trans)-2-(3-methyl-1,2,4-oxadiazol-5-yl)cyclopropanecarboxamido)methyl)-N-(oxetan-3-yl)-5-(3-(trifluoromethoxy)phenyl)-3,4-dihydroisoquinoline-2(1H)-carboxamide]",52
16,"COc1cccc(-c2ccc(CNC(=O)[C@@H]3C[C@H]3c3ccccc3)c3c2CCN(C(=O)NC2COC2)C3)c1 (relative stereo) [Example 74, 5-(3-methoxyphenyl)-N-(oxetan-3-yl)-8-(((trans)-2-phenylcyclopropanecarboxamido)methyl)-3,4-dihydroisoquinoline-2(1H)-carboxamide]",89.8
17,"CCC(C)CNC(=O)N1CCc2c(-c3cccc(OC)c3)ccc(CNC(=O)[C@@H]3C[C@H]3c3ccccc3)c2C1 (relative stereo) [Example 75, 5-(3-methoxyphenyl)-N-(2-methylbutyl)-8-(((trans)-2-phenylcyclopropanecarboxamido)methyl)-3,4-dihydroisoquinoline-2(1H)-carboxamide]",232
18,"COc1cccc(-c2ccc(CNC(=O)[C@H]3C[C@@H]3C(=O)O)c3c2CCN(C(=O)NC(C)(C)C)C3)c1 (relative stereo) [Example 84, (trans)-2-(((2-(tert-butylcarbamoyl)-5-(3-methoxyphenyl)-1,2,3,4-tetrahydroisoquinolin-8-yl)methyl)carbamoyl)cyclopropanecarboxylic acid]",1340
19,"Cc1noc([C@@H]2C[C@H]2C(=O)NCc2ccc(-c3cccc(OC(F)(F)F)c3)c3c2CN(CC(=O)N2CCOCC2(C)C)CC3)n1 (relative stereo) [Example 91, (trans)-N-((2-(2-(3,3-dimethylmorpholino)-2-oxoethyl)-5-(3-(trifluoromethoxy)phenyl)-1,2,3,4-tetrahydroisoquinolin-8-yl)methyl)-2-(3-methyl-1,2,4-oxadiazol-5-yl)cyclopropanecarboxamide]",4300
20,"COc1cccc(-c2ccc(CNC(=O)[C@H]3C[C@@H]3c3ccccc3)c3c2CCN(Cc2cc(F)cc(F)c2)C3)c1 (relative stereo) [Example 92, (trans)-N-((2-(3,5-difluorobenzyl)-5-(3 methoxyphenyl)-1,2,3,4-tetrahydroisoquinolin-8-yl)methyl)-2-phenylcyclopropanecarboxamide]",1140
